# What was measured:
# Format in all cases: in vivo
# [1] = test system: pigweed (Amaranthus retroflexus); assay: Test A postemergence; conditions: Amaranthus retroflexus, post-emergence, 240 h, postemergence, read-out: Pigweed plant response rating
# In short: (§1)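 In a loam soil and sand blend, planted seeds got a preemergence directed soil spray, and young plants at the one- to two-leaf stage, 2–10 cm high, got a postemergence application; ~10 d greenhouse hold; injury rated visually, 0 = none, 100 = complete control.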
# [2] = test system: barnyardgrass (Echinochloa crus-galli); assay: Test A postemergence; conditions: Echinochloa crus-galli, post-emergence, 240 h, postemergence, read-out: Barnyardgrass plant response rating
# In short: as §1
# [3] = test system: blackgrass (Alopecurus myosuroides); assay: Test A postemergence; conditions: Alopecurus myosuroides, post-emergence, 240 h, postemergence, read-out: Blackgrass plant response rating
# In short: as §1
# [4] = test system: ragweed (common ragweed, Ambrosia elatior); assay: Test A postemergence; conditions: Ambrosia artemisiifolia, post-emergence, 240 h, postemergence, read-out: Ragweed plant response rating
# In short: as §1
# Kochia (Kochia scoparia) [5] = assay: Test A postemergence; conditions: Bassia scoparia, post-emergence, 240 h, postemergence, read-out: Kochia plant response rating
# In short: as §1
# [6] = test system: ryegrass, Italian (Italian ryegrass, Lolium multiflorum); assay: Test A postemergence; conditions: Lolium multiflorum, post-emergence, 240 h, postemergence, read-out: Ryegrass, Italian plant response rating
# In short: as §1
# corn (Zea mays) = assay: Test A postemergence; conditions: Zea mays, post-emergence, 240 h, postemergence, read-out: Corn plant response rating
# In short: as §1
# [7] = test system: giant foxtail (Setaria faberii); assay: Test A postemergence; conditions: Setaria faberi, post-emergence, 240 h, postemergence, read-out: Foxtail, Giant plant response rating
# In short: as §1
# [8] = test system: Galium (catchweed bedstraw, Galium aparine); assay: Test A postemergence; conditions: Galium, post-emergence, 240 h, postemergence, read-out: Galium plant response rating
# In short: as §1
# [9] = test system: wheat (Triticum aestivum); assay: Test A postemergence; conditions: Triticum aestivum, post-emergence, 240 h, postemergence, read-out: Wheat plant response rating
# In short: as §1
# [10] = test system: pigweed (Amaranthus retroflexus); assay: Test A preemergence; conditions: Amaranthus retroflexus, pre-emergence, 240 h, preemergence, 0 to 100 scale where 0 is no effect and 100 is complete control, read-out: Pigweed plant response rating
# [11] = test system: barnyardgrass (Echinochloa crus-galli); assay: Test A preemergence; conditions: Echinochloa crus-galli, pre-emergence, 240 h, preemergence, 0 to 100 scale where 0 is no effect and 100 is complete control, read-out: Barnyardgrass plant response rating
# In short: as §1
# [12] = test system: ragweed (common ragweed, Ambrosia elatior); assay: Test A preemergence; conditions: Ambrosia artemisiifolia, pre-emergence, 240 h, preemergence, 0 to 100 scale where 0 is no effect and 100 is complete control, read-out: Ragweed plant response rating
# In short: as §1
# Kochia (Kochia scoparia) [13] = assay: Test A preemergence; conditions: Bassia scoparia, pre-emergence, 240 h, preemergence, 0 to 100 scale where 0 is no effect and 100 is complete control, read-out: Kochia plant response rating
# In short: as §1
# [14] = test system: ryegrass, Italian (Italian ryegrass, Lolium multiflorum); assay: Test A preemergence; conditions: Lolium multiflorum, pre-emergence, 240 h, preemergence, 0 to 100 scale where 0 is no effect and 100 is complete control, read-out: Ryegrass, Italian plant response rating
# In short: as §1
# [15] = test system: giant foxtail (Setaria faberii); assay: Test A preemergence; conditions: Setaria faberi, pre-emergence, 240 h, preemergence, 0 to 100 scale where 0 is no effect and 100 is complete control, read-out: Foxtail, Giant plant response rating
# In short: as §1
# [16] = 125 g ai/ha, visual injury on 0 to 100 scale (0 no effect, 100 complete control), approx. 10 d
# [17] = 500 g ai/ha, 0 to 100 scale, 0 is no effect, 100 is complete control
compound,measurement,setting,value
Cc1c(F)cccc1NC(=O)[C@H]1C(=O)N(C)C[C@@H]1c1cc(F)cc(F)c1 [Compound 1140],pest or weed control at 125 g/ha,[1]; [16],0%
same,pest or weed control at 500 g/ha,[1]; [17],0%
same,pest or weed control at 125 g/ha,[2]; [16],90%
same,pest or weed control at 500 g/ha,[2]; [17],90%
same,pest or weed control at 125 g/ha,[3]; [16],30%
same,pest or weed control at 500 g/ha,[3]; [17],70%
same,pest or weed control at 125 g/ha,[4]; [16],0%
same,pest or weed control at 500 g/ha,[4]; [17],30%
same,pest or weed control at 125 g/ha,Kochia (Kochia scoparia) [5]; [16],0%
same,pest or weed control at 500 g/ha,Kochia (Kochia scoparia) [5]; [17],40%
same,pest or weed control at 125 g/ha,[6]; [16],50%
same,pest or weed control at 500 g/ha,[6]; [17],70%
same,plant injury at 125 g/ha,corn (Zea mays); [16],60%
same,plant injury at 500 g/ha,corn (Zea mays); [17],70%
same,pest or weed control at 125 g/ha,[7]; [16],90%
same,pest or weed control at 500 g/ha,[7]; [17],90%
same,pest or weed control at 125 g/ha,[8]; [16],40%
same,pest or weed control at 500 g/ha,[8]; [17],50%
same,plant injury at 125 g/ha,[9]; [16],30%
same,plant injury at 500 g/ha,[9]; [17],70%
same,pest or weed control at 125 g/ha,"[10]; 125 g ai/ha, approx. 10 d",0%
same,pest or weed control at 500 g/ha,[10]; 500 g ai/ha,40%
same,pest or weed control at 125 g/ha,"[11]; 125 g ai/ha, approx. 10 d",90%
same,pest or weed control at 500 g/ha,[11]; 500 g ai/ha,100%
same,pest or weed control at 125 g/ha,"[12]; 125 g ai/ha, approx. 10 d",30%
same,pest or weed control at 500 g/ha,[12]; 500 g ai/ha,60%
same,pest or weed control at 125 g/ha,"Kochia (Kochia scoparia) [13]; 125 g ai/ha, approx. 10 d",80%
same,pest or weed control at 500 g/ha,Kochia (Kochia scoparia) [13]; 500 g ai/ha,80%
same,pest or weed control at 125 g/ha,"[14]; 125 g ai/ha, approx. 10 d",30%
same,pest or weed control at 500 g/ha,[14]; 500 g ai/ha,40%
same,pest or weed control at 125 g/ha,"[15]; 125 g ai/ha, approx. 10 d",100%
same,pest or weed control at 500 g/ha,[15]; 500 g ai/ha,100%
